Earlier results on 3 substances are cited in paper PMC3719006, “Safety, tolerability, pharmacokinetics, and pharmacodynamics of a long-acting release (LAR) formulation of pasireotide (SOM230) in patients with gastroenteropancreatic neuroendocrine tumors: results from a randomized, multicenter, open-label, phase I study” (Cancer Chemotherapy and Pharmacology, 2013).

As a reminder, the half-life is the time in which the quantity being followed falls by half.

For data set [1] the following is noted: native somatostatin. On the procedure: Somatostatin inhibits hormone release and cell growth through binding to specific, cell surface, G-protein–coupled receptors, of which five distinct subtypes (sst1–5) have been characterized. In pancreatic and gastrointestinal endocrine tumors, sst2 expression predominates, although multiple other subtypes have also been found. The limited clinical use of native somatostatin, because of its very short half-life (<3 min) and the impact of rebound hypersecretion, has necessitated the development of more clinically useful analogs. Development of the somatostatin an ...

For another data set, the system named is sst5 receptor. An excerpt: (§1) Somatostatin inhibits hormone release and cell growth through binding to specific, cell surface, G-protein–coupled receptors, of which five distinct subtypes (sst1–5) have been characterized. In pancreatic and gastrointestinal endocrine tumors, sst2 expression predominates, although multiple other subtypes have also been found. […] Development of the somatostatin an ...

For another data set, the system named is sst2 receptor.
Excerpt: as §1

The test system of data set [2] is somatostatin receptor subtypes (sst1–3,5). Further details: method as in PMID 17977644. Conditions: four of the five somatostatin receptor subtypes.
For data set [3] the following is noted: SC formulation.

For “somatostatin: native hormone that inhibits hormone release and cell growth via sst1–5”, the half-life in data set [1] is under 3 min.

Turning to octreotide, the binding affinity result in the data set on sst5 receptor was “lower binding affinity”; in the data set on sst2 receptor, “binds with high affinity”.

With pasireotide, the binding affinity result in data set [2] was “binds with high affinity”. Also, the “PK exposure difference between patients with GEP NET and healthy volunteers” value in data set [3] is “twofold”.
